{"source": "patent US5356904A", "about": "“Carbostyril oxytocin receptor antagonists” (Merck & Co., Inc., priority 1992, dated 1994)", "key": {"uterine OT receptors": {"molecular_target": "T1, uterine OT receptors (Rattus norvegicus, UniProt P70536)", "T1 construct": "using a crude membrane preparation of uteri; from tissue; host or cells: rat uterus, crude membrane preparation (DES-treated rats)", "T1 sequence (P70536 1-388)": "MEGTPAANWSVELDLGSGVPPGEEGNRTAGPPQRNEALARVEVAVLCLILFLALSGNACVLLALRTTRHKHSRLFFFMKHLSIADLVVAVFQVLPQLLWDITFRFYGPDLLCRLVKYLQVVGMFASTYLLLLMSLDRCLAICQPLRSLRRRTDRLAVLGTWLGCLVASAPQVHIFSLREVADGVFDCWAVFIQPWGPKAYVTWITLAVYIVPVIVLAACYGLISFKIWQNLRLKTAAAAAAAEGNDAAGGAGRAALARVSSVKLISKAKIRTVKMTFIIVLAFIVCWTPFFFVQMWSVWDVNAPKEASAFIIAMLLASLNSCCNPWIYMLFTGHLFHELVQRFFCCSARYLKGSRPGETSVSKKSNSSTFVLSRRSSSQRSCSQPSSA", "experiment": "[3H]oxytocin (OT) radioligand binding, uterine membranes", "conditions": "for inhibition at 10 µM: read-out: % Inhibition rat OT"}, "AVP-V2 sites": {"molecular_target": "AVP-V2 sites (Rattus norvegicus, UniProt Q00788)", "sequence (Q00788 whole entry)": "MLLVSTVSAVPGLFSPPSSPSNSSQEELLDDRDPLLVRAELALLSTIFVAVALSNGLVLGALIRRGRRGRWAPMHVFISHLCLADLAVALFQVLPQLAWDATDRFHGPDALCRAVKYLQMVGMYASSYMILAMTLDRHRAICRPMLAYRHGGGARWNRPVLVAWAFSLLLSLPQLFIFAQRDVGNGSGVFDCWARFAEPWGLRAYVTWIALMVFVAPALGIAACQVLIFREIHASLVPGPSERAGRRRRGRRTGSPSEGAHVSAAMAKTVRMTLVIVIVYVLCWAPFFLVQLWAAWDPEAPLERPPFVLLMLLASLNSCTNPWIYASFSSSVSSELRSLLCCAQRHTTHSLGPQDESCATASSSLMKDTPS", "experiment": "[3H]vasopressin (AVP) radioligand binding, kidney medulla membranes (AVP-V2 sites)", "conditions": "for inhibition at 3 µM: read-out: % Inhibition rat V2"}, "AVP-V1 sites": {"molecular_target": "T2, AVP-V1 sites (Rattus norvegicus, UniProt P30560)", "T2 construct": "crude membrane preparation of male rat liver; from tissue; host or cells: male rat liver, crude membrane preparation", "T2 sequence (P30560 whole entry)": "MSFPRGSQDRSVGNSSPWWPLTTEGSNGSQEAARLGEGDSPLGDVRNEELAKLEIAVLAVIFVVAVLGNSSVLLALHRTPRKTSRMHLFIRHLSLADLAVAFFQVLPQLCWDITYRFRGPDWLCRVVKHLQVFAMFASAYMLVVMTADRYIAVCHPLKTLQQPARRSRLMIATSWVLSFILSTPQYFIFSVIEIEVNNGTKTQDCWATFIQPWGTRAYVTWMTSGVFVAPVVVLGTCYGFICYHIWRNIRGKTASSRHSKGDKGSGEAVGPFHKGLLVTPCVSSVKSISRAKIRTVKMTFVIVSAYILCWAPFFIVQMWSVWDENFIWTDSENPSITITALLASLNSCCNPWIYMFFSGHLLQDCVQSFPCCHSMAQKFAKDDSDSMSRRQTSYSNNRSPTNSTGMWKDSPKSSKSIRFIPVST", "experiment": "[3H]vasopressin (AVP) radioligand binding, liver membranes (AVP-V1 sites)", "conditions": "for inhibition at 3 µM: read-out: % Inhibition rat V1"}}, "note": "Like-named read-outs stand apart in the source and are kept apart here."}
{"smiles": "O=C(c1ccc(-c2ccccc2)cc1)N1CCC(N2C(=O)CCc3ccccc32)CC1", "note": "[C6H5]", "values": [{"measurement": "IC50", "setting": "uterine OT receptors", "value": 3500, "unit": "nM"}, {"measurement": "inhibition at 3 µM", "setting": "AVP-V2 sites", "value": 2, "unit": "%"}, {"measurement": "inhibition at 3 µM", "setting": "AVP-V1 sites", "value": 65, "unit": "%"}]}
{"smiles": "O=C(c1ccc(C(F)(F)F)cc1)N1CCC(N2C(=O)CCc3ccccc32)CC1", "note": "[CF3]", "values": [{"measurement": "inhibition at 10 µM", "setting": "uterine OT receptors", "value": 69, "unit": "%"}, {"measurement": "IC50", "setting": "AVP-V2 sites", "value": 60000, "unit": "nM"}, {"measurement": "IC50", "setting": "AVP-V1 sites", "value": 800, "unit": "nM"}]}
{"smiles": "O=C(c1cccc2ccccc12)N1CCC(N2C(=O)CCc3ccccc32)CC1", "note": "[CO, 1-naphthyl]", "values": [{"measurement": "inhibition at 10 µM", "setting": "uterine OT receptors; @ 10 uM", "value": 69, "unit": "%"}, {"measurement": "inhibition at 3 µM", "setting": "AVP-V2 sites; @ 3 uM", "value": 5, "unit": "%"}, {"measurement": "inhibition at 3 µM", "setting": "AVP-V1 sites; @ 3 uM", "value": 17, "unit": "%"}]}
{"smiles": "O=C(c1ccc2ccccc2c1)N1CCC(N2C(=O)CCc3ccccc32)CC1", "note": "[CO, 2-naphthyl]", "values": [{"measurement": "inhibition at 10 µM", "setting": "uterine OT receptors", "value": 75, "unit": "%"}, {"measurement": "inhibition at 3 µM", "setting": "AVP-V2 sites", "value": 7, "unit": "%"}, {"measurement": "inhibition at 3 µM", "setting": "AVP-V1 sites", "value": 75, "unit": "%"}]}
{"smiles": "O=C(c1ccc2[nH]ccc2c1)N1CCC(N2C(=O)CCc3ccccc32)CC1", "note": "[CO, 5-indolyl]", "values": [{"measurement": "IC50", "setting": "uterine OT receptors", "value": 1700, "unit": "nM"}, {"measurement": "IC50", "setting": "AVP-V2 sites", "value": 56000, "unit": "nM"}, {"measurement": "IC50", "setting": "AVP-V1 sites", "value": 240, "unit": "nM"}]}
{"smiles": "Nc1ccc(CC(=O)N2CCC(N3C(=O)CCc4ccccc43)CC2)cc1", "note": "[CO, p-CH2C6H4NH2]", "values": [{"measurement": "inhibition at 1 µM", "setting": "uterine OT receptors; @ 1 uM", "value": 19, "unit": "%"}, {"measurement": "inhibition at 3 µM", "setting": "AVP-V2 sites; @ 3 uM", "value": 1, "unit": "%"}, {"measurement": "inhibition at 3 µM", "setting": "AVP-V1 sites; @ 3 uM", "value": 27, "unit": "%"}]}
{"smiles": "CC(=O)Nc1ccc(CC(=O)N2CCC(N3C(=O)CCc4ccccc43)CC2)cc1", "note": "[CO, p-CH2C6H4NHAc]", "values": [{"measurement": "IC50", "setting": "uterine OT receptors", "value": 2300, "unit": "nM"}, {"measurement": "IC50", "setting": "AVP-V2 sites", "value": "> 100000", "unit": "nM"}, {"measurement": "IC50", "setting": "AVP-V1 sites", "value": 950, "unit": "nM"}]}
{"smiles": "COc1ccc(CC(=O)N2CCC(N3C(=O)CCc4ccccc43)CC2)cc1", "note": "[CO, p-CH2C6H4OCH3]", "values": [{"measurement": "IC50", "setting": "uterine OT receptors", "value": 2400, "unit": "nM"}, {"measurement": "IC50", "setting": "AVP-V2 sites", "value": "> 100000", "unit": "nM"}, {"measurement": "IC50", "setting": "AVP-V1 sites", "value": 6000, "unit": "nM"}]}
{"smiles": "O=C(c1ccc(OCCCN2C(=O)c3ccccc3C2=O)cc1)N1CCC(N2C(=O)CCc3ccccc32)CC1", "note": "[Example 2]", "values": [{"measurement": "IC50", "setting": "uterine OT receptors", "value": 1100, "unit": "nM"}]}
{"smiles": "COc1ccc(C(=O)N2CCC(N3C(=O)CCc4ccccc43)CC2)c(OC)c1", "note": "[Example 5]", "values": [{"measurement": "IC50", "setting": "uterine OT receptors", "value": 560, "unit": "nM"}, {"measurement": "IC50", "setting": "AVP-V1 sites", "value": 39, "unit": "nM"}]}
{"smiles": "O=C(c1ccc(OCCCN2C(=O)c3ccccc3C2=O)cc1)N1CCC(N2C(=O)CCc3ccccc32)CC1", "note": "[O(CH2)3NPth (drawing 528)]", "values": [{"measurement": "IC50", "setting": "AVP-V2 sites", "value": "≥ 100000", "unit": "nM"}]}
{"smiles": "CC1(C)[C@@H]2CC[C@@]1(CS(=O)(=O)N1CCC(N3C(=O)CCc4ccccc43)CC1)C(=O)C2", "note": "[SO2, (+)-camphor-10-yl]", "values": [{"measurement": "IC50", "setting": "uterine OT receptors", "value": 1900, "unit": "nM"}, {"measurement": "IC50", "setting": "AVP-V2 sites", "value": 72000, "unit": "nM"}, {"measurement": "IC50", "setting": "AVP-V1 sites", "value": 8000, "unit": "nM"}]}
{"smiles": "COc1ccc(S(=O)(=O)N2CCC(N3C(=O)CCc4ccccc43)CC2)cc1", "note": "[SO2, p-C6H4OCH3]", "values": [{"measurement": "inhibition at 10 µM", "setting": "uterine OT receptors; @ 10 uM", "value": 36, "unit": "%"}, {"measurement": "inhibition at 3 µM", "setting": "AVP-V2 sites; @ 3 uM", "value": 12, "unit": "%"}, {"measurement": "inhibition at 3 µM", "setting": "AVP-V1 sites; @ 3 uM", "value": 15, "unit": "%"}]}
{"smiles": "COc1cccc(C(=O)N2CCC(N3C(=O)CCc4ccccc43)CC2)c1", "note": "[m-OCH3]", "values": [{"measurement": "IC50", "setting": "uterine OT receptors", "value": 2700, "unit": "nM"}, {"measurement": "IC50", "setting": "AVP-V2 sites", "value": "> 100000", "unit": "nM"}, {"measurement": "IC50", "setting": "AVP-V1 sites", "value": 2100, "unit": "nM"}]}
{"smiles": "Cc1ccc(C(=O)N2CCC(N3C(=O)CCc4ccccc43)CC2)c(C)c1", "note": "[o-CH3, p-CH3]", "values": [{"measurement": "inhibition at 10 µM", "setting": "uterine OT receptors; @ 10 uM", "value": 79, "unit": "%"}, {"measurement": "inhibition at 3 µM", "setting": "AVP-V2 sites; @ 3 uM", "value": 55, "unit": "%"}, {"measurement": "inhibition at 3 µM", "setting": "AVP-V1 sites; @ 3 uM", "value": 48, "unit": "%"}]}
{"smiles": "O=C(c1ccc(Cl)cc1Cl)N1CCC(N2C(=O)CCc3ccccc32)CC1", "note": "[o-Cl, p-Cl]", "values": [{"measurement": "inhibition at 10 µM", "setting": "uterine OT receptors; @ 10 uM", "value": 7, "unit": "%"}, {"measurement": "inhibition at 3 µM", "setting": "AVP-V2 sites; @ 3 uM", "value": 1, "unit": "%"}, {"measurement": "inhibition at 3 µM", "setting": "AVP-V1 sites; @ 3 uM", "value": 34, "unit": "%"}]}
{"smiles": "O=C(c1ccc([N+](=O)[O-])cc1Cl)N1CCC(N2C(=O)CCc3ccccc32)CC1", "note": "[o-Cl, p-NO2]", "values": [{"measurement": "IC50", "setting": "uterine OT receptors", "value": 15000, "unit": "nM"}, {"measurement": "inhibition at 3 µM", "setting": "AVP-V2 sites", "value": 6, "unit": "%"}, {"measurement": "inhibition at 3 µM", "setting": "AVP-V1 sites", "value": 34, "unit": "%"}]}
{"smiles": "COc1ccc(C(=O)N2CCC(N3C(=O)CCc4ccccc43)CC2)c(OC)c1", "note": "[o-OCH3, p-OCH3 (drawing 527)]", "values": [{"measurement": "IC50", "setting": "AVP-V2 sites", "value": 28000, "unit": "nM"}]}
{"smiles": "COc1ccccc1C(=O)N1CCC(N2C(=O)CCc3ccccc32)CC1", "note": "[o-OCH3]", "values": [{"measurement": "IC50", "setting": "uterine OT receptors", "value": 1100, "unit": "nM"}, {"measurement": "IC50", "setting": "AVP-V2 sites", "value": 66000, "unit": "nM"}, {"measurement": "IC50", "setting": "AVP-V1 sites", "value": 380, "unit": "nM"}]}
{"smiles": "CC(C)(C)c1ccc(C(=O)N2CCC(N3C(=O)CCc4ccccc43)CC2)cc1", "note": "[tert-C4H9]", "values": [{"measurement": "inhibition at 10 µM", "setting": "uterine OT receptors", "value": 77, "unit": "%"}, {"measurement": "IC50", "setting": "AVP-V2 sites", "value": "~70000", "unit": "nM"}, {"measurement": "IC50", "setting": "AVP-V1 sites", "value": 800, "unit": "nM"}]}
